Assay results: patent US20240325521A1, “IONIZABLE LIPID COMPOUND FOR NUCLEIC ACID DELIVERY AND LNP COMPOSITION THEREOF” (priority 2021, published 2024)

Key:
Hep3B cells = format: cell-based; conditions: compared with cationic lipids III and IV
[1] = 25° C., up to 4 weeks; compared with cationic lipids III and IV
[2] = Detection of novel coronavirus LNP-mRNA vaccine after encapsulation with different cationic lipids (encapsulation efficiency, particle size, PDI, Zeta potential); format: physicochemical; conditions: compared with control cationic lipids III and IV

SMILES | in-vitro transfection efficiency (Hep3B cells) | stability of LNP-mRNAs prepared by the cationic lipid [1] | encapsulation effect on mRNA antigen [2]
CCCCCCCCC(CCCCCC)COC(=O)OCCCCCCN(CCCCO)CCCCCCOC(=O)OCC(CCCCCC)CCCCCCCC (stereo not drawn) [Compound 1] | better | better | better encapsulation effect
CCCCCCCCCCCOC(=O)OCCCCCN(CCO)CCCCCCCOC(=O)OC(CCCCCCCC)CCCCCCCC [Compound 2] | better | better | better encapsulation effect
